Experimental findings from patent US8530404B2, “Compounds and methods for treatment of cancer” (FibroGen, Inc., priority 2005, dated 2013) are described below.

Read-outs that look alike come from different tables or passages of the source.

Assay [1] concerns REDD1/RTP801 gene expression. As to the kind of experiment: REDD1/RTP801 gene expression in Hep3B cells (Affymetrix microarray). The conditions noted are these: 25 μM, vs DMSO control. Format: cell-based, human. The procedure: (§1) To identify compounds useful in the methods of the present invention, the following studies were performed. The effect of compounds of the present invention on expression of various genes associated with anti-tumor activity (e.g., genes having anti-proliferative activity, genes having pro-apoptotic activity, genes having anti-tumor activity, etc.). In these experiments, the effect of compounds on BNIP3, BNIP3L, NDRG1, CDKN1C, and REDD1/RTP801 gene expression in various types of cultured tumor cells line was examined, including Hep3B cells (human hepatocellular carcinoma), Kelly neuroblastoma cells, and MCF7 cells (human breast cancer)
(§2) The effects of various compounds of the present invention on the expression of genes associated with tumor growth and progression were examined in Hep3B cells as follows. Hep3B cells (ATCC) were cultured in DMEM containing 8% fetal bovine serum (FBS) and antibiotics. For each experiment, Hep3 cells were added to 6-well tissue culture dishes (approximately 500,000 cells per well). After 8 hours, the media was replaced with DMEM containing 0.5% FBS. Sixteen hours later, various compounds of the present invention were added to the cultured cells to a final concentration of 25 μM. The cells were then harvested and added to RNA extraction buffer (RNeasy, Qiagen). RNA was isolated from cell lysates using RNeasy Mini spin columns (Qiagen) according to the manufacturer's instructions. Changes in expression of various gene transcript levels associated with tumor growth and progression were determined by Affymetrix microarray. Labeled probes were prepared and hybridized to U133A Affyrnetrix microarrays.
(§3) Changes in gene expression levels in vitro following compound addition are presented as fold change relative to gene expression levels observed in control cells treated with DMSO only. Data represents the average of two independent studies.

Assay [2] relates to CDKN1C gene expression. As to the kind of experiment: CDKN1C gene expression in Kelly neuroblastoma cells. The following applies: Kelly cells; 20 μM; 20-24 hours; normalized to 18S RNA; vs DMSO control; read-out: fold-increase in CDKN1C mRNA expression. Format: cell-based. The procedure: as §1
(§4) The effects of various compounds of the present invention on the expression of genes associated with tumor growth and progression were examined in Kelly neuroblastoma cells as follows. Kelly neuroblastoma cells were grown in RPMI media. For each experiment, Kelly neuroblastoma cells were added to 96-well tissue culture plates (approximately 40,000 cells per well) such that the plated cells reached confluence the following day. On the following day, the cells were washed and the media replaced with RPMI containing 0.5% FBS. Various compounds of the present invention were added to the cultured cells to a final concentration of 20 μM, and the cells cultured for an additional 20-24 hours. DMSO (0.5%) was added to control cell cultures.
(§5) RNA was isolated from the Kelly neuroblastoma cells using a commercial kit and used for the preparation of cDNA. BNIP3, CDKN1C, and 18S RNA levels were measured using commercial kits (18S, Applied Biosystems cat#4319413E); BNIP3, Applied Biosystems cat#HS00969293 MH). RNA levels for BNIP3 and CDKN1C were normalized to that of 18S RNA and is presented as fold-change compared to that observed in DMSO control cultures. Kelly cell NDRG1 and BNIP3L mRNA levels were measured by Affymetrix microarray in a separate study. Cells were harvested after 6 hours incubation with 20 μM test compound or DMSO (0.5%) as control. RNA was isolated and labeled probes were prepared and hybridized to U133 Plus 2.0 Affymetrix microarrays. Changes in gene expression levels are presented as fold change compared to that of control (0.5% DMSO-treated) cultures.

Assay [3] deals with CDKN1C gene expression. As to the kind of experiment: CDKN1C gene expression in MCF7 cells. It is filed as cell-based. The following applies: Homo sapiens; MCF7 cells; 20 μM; 20-24 hours; vs 0.5% DMSO control; read-out: fold-increase in CDKN1C mRNA expression. As for the experimental part: as §1
(§6) The effects of various compounds of the present invention on the expression of genes associated with tumor growth and progression were examined in MCF7 breast cancer cells as follows. In some experiments, MCF7 (ATCC) cells were plated in 96-well tissue culture dishes (approximately 20,000 cells per well) and cultured in DMEM media supplemented with 10% serum. The following day, the cells were washed and the media was replaced with DMEM containing 0.5% FBS. Various compounds of the present invention were added to the cultured cells to a final concentration of 20 μM, and the cells cultured for an additional 20-24 hours. DMSO (0.5%) was added to control cell cultures. RNA was isolated as described above. Changes in gene expression levels are presented as fold change compared to that of control (0.5% DMSO-treated) cultures.

Assay [4] deals with NDRG1 gene expression. As to the kind of experiment: In vivo NDRG1 gene expression in Swiss Webster mice (quantitative PCR). The conditions noted are these: Mus musculus, iv, 4 h; kidney; single 60 mg/kg i.v. dose; four hours after administration; normalized to 18S; read-out: fold change in NDRG1 mRNA level. As for the experimental part:
(§7) The effects of various compounds of the present invention on the expression of genes associated with tumor growth and progression (e.g., expression of genes associated with anti-proliferative effects) were examined in vivo as follows. In these studies, male Swiss Webster mice (25 g) were administered a single intravenous (i.v.) dose of various compounds (60 mg/kg) of the present invention via the tail vein. Four hours after administration of compound, the kidneys and liver were removed and preserved in RNAlater (Ambion). RNA isolation and cDNA synthesis was carried out as follows. Murine kidney tissue was added to TRIzol (Invitrogen) and homogenized using a 5-mm stainless steel bead for 4 minutes at 25 Hz in a Mixer Mill 300 (Qiagen). Homogenates were extracted with chloroform according to the manufacturer's instructions and aqueous supernatants were isolated. The aqueous supernatants were combined with equal volumes of 70% ethanol and then loaded onto RNeasy Mini spin columns (Qiagen). RNA was isolated according to the manufacturer's instructions.
(§8) Synthesis of cDNA from the isolated total RNA was carried out using Omniscript reverse transcriptase (Qiagen) and random primers according to the manufacturer's instructions. Measurement of gene expression levels in compound-treated animals and in vehicle-treated control animals was performed by quantitative PCR using TaqMan Universal PCR Master Mix (Applied Biosystems) and TaqMan Assay-on-Demand assays (Applied Biosystems) in a Prism 7000 system instrument (Applied Biosystems), according to manufacturer's instructions. The assays used were as follows: 18S ribosomal RNA, Hs99999901_s1; BNIP3, Mm00833810_g1; BNIP3L, Mm00786306_s1; NDRG1, Mm00440447_m1. Each PCR amplification reaction included a standard curve and a water blank. Data for gene expression levels for BNIP3, BNIP3L, and NDRG1 were normalized to that of 18S ribosomal RNA within each sample. Data is presented as fold change in specific mRNA levels relative to that of non-treated control animals.

Assay [5] deals with BNIP3L gene expression. As to the kind of experiment: BNIP3L gene expression in Hep3B cells (Affymetrix microarray). Format: cell-based, human. The following applies: 25 μM, vs DMSO control. As for the experimental part:
as §1, §2, §3

The test system of assay [6] is BNIP3 gene expression. As to the kind of experiment: BNIP3 gene expression in MCF7 cells. It is filed as cell-based. The conditions noted are these: Homo sapiens; MCF7 cells; 20 μM; 20-24 hours; vs 0.5% DMSO control; read-out: fold-increase in BNIP3 mRNA expression. The procedure: as §1, §6
In other experiments, MCF7 cells were plated in 96-well tissue culture dishes as described above. After 24 hours, the cells were washed and the media was replaced with DMEM containing 0.5% FBS. Various compounds of the present invention were added to the cultured cells to a final concentration of 20 μM. DMSO (0.5%) was added to control cell cultures. After 24 hours, changes in gene expression of BNIP3 and 18S RNA were determined directly using one-step quantitative multiplex RT-PCR reactions according to the manufacturer's instructions (QuantiTect Multiplex RT-PCR Kit, Qiagen, catalog no. 204643). Changes in gene expression levels are presented as fold change compared to that of control (0.5% DMSO-treated) cultures.

The test system of assay [7] is BNIP3 gene expression. As to the kind of experiment: In vivo BNIP3 gene expression in Swiss Webster mice (quantitative PCR). The following applies: Mus musculus, iv, 4 h, single 60 mg/kg i.v. dose, four hours after administration, normalized to 18S, read-out: fold change in BNIP3 mRNA level. The procedure: as §7, §8
Assay [8] deals with BNIP3 gene expression. As to the kind of experiment: BNIP3 gene expression in Hep3B cells (Affymetrix microarray). Format: cell-based, human. The conditions noted are these: 25 μM, vs DMSO control. As for the experimental part: as §1, §2, §3
For assay [9], the system named is NDRG1 gene expression. As to the kind of experiment: NDRG1 gene expression in Hep3B cells (Affymetrix microarray). Format: cell-based, human. The conditions noted are these: 25 μM, vs DMSO control. The procedure: as §1, §2, §3
Assay [10] concerns BNIP3 gene expression. As to the kind of experiment: BNIP3 gene expression in Kelly neuroblastoma cells. It is filed as cell-based. The conditions noted are these: Kelly cells; 20 μM; 20-24 hours; normalized to 18S RNA; vs DMSO control; read-out: fold-increase in BNIP3 mRNA expression. As for the experimental part: as §1, §4, §5
Assay [11] deals with BNIP3L gene expression. As to the kind of experiment: In vivo BNIP3L gene expression in Swiss Webster mice (quantitative PCR). The following applies: Mus musculus, iv, 4 h, single 60 mg/kg i.v. dose, four hours after administration, normalized to 18S, read-out: fold change in BNIP3L mRNA level. As for the experimental part: as §7, §8

Turning to `O=C(O)CNC(=O)c1ncc2cc(Sc3ccccc3)ccc2c1O` [Compound N, [(4-hydroxy-7-phenylsulfanyl-isoquinoline-3-carbonyl)-amino]-acetic acid], the “fold-increase in REDD1/RTP801 mRNA expression” value in [1] was determined as 5.7 fold. In addition, the fold induction at 20 µM in the assay on CDKN1C gene expression [2] stood at 183; in the assay on CDKN1C gene expression [3], 0.4; in the assay with BNIP3 gene expression [6] it was 4.9; in the assay on BNIP3 gene expression [10], 27.1. For the same compound, the fold induction at 60 mg/kg with NDRG1 gene expression [4] is 1.2; in the assay on BNIP3 gene expression [7] (kidney) it was 3.1; in the assay on BNIP3L gene expression [11] (kidney) it was 3.4. Besides, in the assay with BNIP3L gene expression [5], the “fold-increase in BNIP3L mRNA expression” value stood at 2.8 fold. In addition, in the assay on BNIP3 gene expression [8], the “fold-increase in BNIP3 mRNA expression” value is reported as 3.6 fold. In addition, the “fold-increase in NDRG1 mRNA expression” value with NDRG1 gene expression [9] is 3.7 fold.
In the case of `O=C(O)CNC(=O)c1nc2cc(Cl)ccc2cc1O` [Compound H, [(7-Chloro-3-hydroxy-quinoline-2-carbonyl)-amino]-acetic acid], the “fold-increase in REDD1/RTP801 mRNA expression” value in assay [1] stood at 2.4 fold. In addition, the fold induction at 20 µM came out at 11.6 with CDKN1C gene expression [2], 0.7 in the assay with CDKN1C gene expression [3], 3.2 in the assay on BNIP3 gene expression [6] and 5.9 in the assay with BNIP3 gene expression [10]. Further, in the assay with BNIP3L gene expression [5], the “fold-increase in BNIP3L mRNA expression” value stood at 1.5 fold. Moreover, in the assay on BNIP3 gene expression [8], the “fold-increase in BNIP3 mRNA expression” value is on record as 2.0 fold. The “fold-increase in NDRG1 mRNA expression” value with NDRG1 gene expression [9] is listed as 2.4 fold.
Consider `O=C(O)CNC(=O)c1ncc2cc(Oc3ccccc3)ccc2c1O` [Compound K, [(4-Hydroxy-7-phenoxy-isoquinoline-3-carbonyl)-amino]-acetic acid], for which the “fold-increase in REDD1/RTP801 mRNA expression” value in [1] amounted to 4.8 fold. The “fold-increase in BNIP3L mRNA expression” value in the assay on BNIP3L gene expression [5] is 2.2 fold. Further, in the assay on BNIP3 gene expression [6], the fold induction at 20 µM is 7.7. Moreover, in the assay on BNIP3 gene expression [8], the “fold-increase in BNIP3 mRNA expression” value is on record as 3.0 fold. In addition, the “fold-increase in NDRG1 mRNA expression” value in the assay with NDRG1 gene expression [9] was determined as 3.3 fold.
Turning to `O=C(O)c1c[nH]c2c(ccc3cccnc32)c1=O` [Compound F, 4-Oxo-1,4-dihydro-[1,10]phenanthroline-3-carboxylic acid], in assay [1], the “fold-increase in REDD1/RTP801 mRNA expression” value came to 6.3 fold. The “fold-increase in BNIP3L mRNA expression” value in the assay on BNIP3L gene expression [5] came out at 3.2 fold. In addition, the fold induction at 60 mg/kg turned out to be 1.1 in the assay on BNIP3 gene expression [7] (liver) and 1.3 in the assay with BNIP3L gene expression [11] (liver). In addition, the “fold-increase in BNIP3 mRNA expression” value in the assay on BNIP3 gene expression [8] is reported as 3.5 fold. For the same compound, the “fold-increase in NDRG1 mRNA expression” value with NDRG1 gene expression [9] turned out to be 5.4 fold.
